pIC50: −log10 of the molar value. “And” between values parts separate entries of the source, which are not always exact repeats. Identical values can stand only once.
Experiments:
hrPDE4D = hrPDE4D (Homo sapiens, UniProt Q08499); assay: PDE-Glo Phosphodiesterase Assay, hrPDE4D
Method: (§1) Inhibitory activity of the investigated and reference compounds against various subtypes of PDEs was analyzed using the PDE-Glo Phosphodiesterase Assay following the manufacturer’s instruction (Promega Corp., USA). […] The values of IC50, Imax, and γ parameters of the investigated and reference compounds were estimated using non-linear regression in Phoenix WinNonlin v. […] Each sample was performed in quadruplicate and the relative activity of each sample was calculated as E=sample activity/control activity·100% .
(§2) One and a half μL aliquots of PDE-Glo reaction buffer containing appropriate amounts of human recombinant PDE (hrPDE) 1B, 2A, 3A, 4B, 4D, 5A, 7A, or 10A (SignalChem, Richmond, Canada) were placed into separate wells of a 384-well plate (Thermo Scientific, USA). The investigated compounds were initially dissolved in DMSO and then a serial dilution with DMSO was performed. Each dilution was mixed with PDE-Glo reaction buffer at a ratio of 1:5 (v/v). Then, 1 μL of the solution containing a PDE inhibitor and 2.5 μL of the substrate solution were added to each well. cGMP was used as a substrate in the case of hrPDE2A and hrPDE5A, while cAMP for other types of hrPDEs. The samples were incubated for 10 min at 30°C. […] The luminescence of each sample was measured by a microplate reader POLARstar Omega (BMG LABTECH, Germany).

hrPDE4B = biological target: T1, hrPDE4B (Homo sapiens, UniProt Q07343); assay: PDE-Glo Phosphodiesterase Assay, hrPDE4B; type: biochemical; details: for hrPDE4B inhibitory activity, times weaker than rolipram: ratio to the reference compound rolipram
T1 construct: purchased SignalChem, Richmond, Canada
Method: as §1
One and a half μL aliquots of PDE-Glo reaction buffer containing appropriate amounts of human recombinant PDE (hrPDE) 1B, 2A, 3A, 4B, 4D, 5A, 7A, or 10A (SignalChem, Richmond, Canada) were placed into separate wells of a 384-well plate (Thermo Scientific, USA). The investigated compounds were initially dissolved in DMSO and then a serial dilution with DMSO was performed. Each dilution was mixed with PDE-Glo reaction buffer at a ratio of 1:5 (v/v). Then, 1 μL of the solution containing a PDE inhibitor and 2.5 μL of the substrate solution were added to each well. cGMP was used as a substrate in the case of hrPDE2A and hrPDE5A, while cAMP for other types of hrPDEs. The samples were incubated for 10 min at 30°C. Subsequently, 2.5 μL volumes of PDE-Glo Termination Buffer and PDE-Glo Detection Solution were added to each well and after 20 min of incubation at room temperature, 10 μL of Kinase-Glo Reagent was added to each well. The luminescence of each sample was measured by a microplate reader POLARstar Omega (BMG LABTECH, Germany).

hrPDE5A = hrPDE5A (Homo sapiens, UniProt O76074); assay: PDE-Glo Phosphodiesterase Assay, hrPDE5A
Method: as §1, §2

hrPDE10A = hrPDE10A (Homo sapiens, UniProt Q9Y233); assay: PDE-Glo Phosphodiesterase Assay, hrPDE10A
Method: as §1, §2

hrPDE2A = biological target: T2, hrPDE2A (Homo sapiens, UniProt O00408); assay: PDE-Glo Phosphodiesterase Assay, hrPDE2A; type: biochemical; details: cGMP substrate, read-out: IC50 PDE2A, Estimate (CV%)
T2 construct: purchased SignalChem, Richmond, Canada
Method: as §1, §2

[1] = test system: collagen-induced arthritis (CIA) in female Lewis rats; assay: Histological evaluation of ankle cross-sections from CIA rats; type: in vivo, rat; details: multiple administration, compared to vehicle control
Method: At a day 0 of the experiment animals were subcutaneously (SC) injected at the base of the tail with 200 μL of the emulsion using a 27 gauge × 5/8″ needle and Hamilton syringe. At day 7 after the initial immunization, a booster injection with 100 μL of emulsion was performed. Ninety % of rats developed symptoms of disease (paw swelling >150% of day 0) at day 20 of the experiment. At this day, diseased animals were randomly divided into five groups (n = 6). […] One investigated group received (±)-LSF dissolved in saline at an SC dose of 80 mg kg^−1 once daily. The corresponding control groups were administered with appropriate volumes of vehicles IP or SC. At day 40 animals were sacrificed. Hind paws of rats were taken and immersed into 4% buffered formalin solution for a subsequent histological analysis. Blood samples were collected and allowed to clot for 20 min and then centrifuged at 2000 x g for 15 min. Serum samples were collected and frozen at -80°C.
The morphological studies were performed with the imaging CellSens Dimention (Olympus) software. Osteoarthritis histopathology was assessed based on the symptoms associated with synovial inflammation, chondropathy, and subchondral osteoarthritis. Synovitis index estimation involved synovial inflammation, synovial lining thickness, dense of cellularity, and presence of perivascular lymphoid aggregates, where normal synovium (score 0) is defined as thin linning with sparse cellular distribution and no/few inflammatory cells, mild and moderate synovial inflammation (score 1 to 2) indicate thickness of linning with dense cellularity with inflammatory cells, and severe inflammation (score 3) means hypervascular synovitis containing lymphoid aggregates. Two aspects of chondropathy were graded: surface integrity and chondrocyte yielding score 0 for normal morphology to score 3 for chondral lesion with chondrocyte hypercellurarity and/or cloning, and complete cartilage surface integrity loss. Subchondral plate thickening, bone trabeculae deterioration, bone marrow lesion (bone pseudocysts - cavitary lesion formation) associated with fibrovascular replacement of marrow spaces were accounted for subchondral osteoarthritis with grading score from 0 to 3 in severe lesion. The sample preparation procedure for histological evaluation is described in the supplementary materials.
The hind paws were cut about 0.5 cm above the rat joint. Then the joints were fixed in 4% buffered formalin for one week, decalcified, dehydrated in ethanol solutions of increasing concentrations, and embedded in the paraffin blocks. Subsequently, paws were serially cut at 6-μm thickness using a rotational microtome Leica RM 2145 type and stained with Masson's Trichrome. Digital images were taken using a computerized digital camera (Olympus UC90, Olympus).

T1 sequence (Q07343 whole entry): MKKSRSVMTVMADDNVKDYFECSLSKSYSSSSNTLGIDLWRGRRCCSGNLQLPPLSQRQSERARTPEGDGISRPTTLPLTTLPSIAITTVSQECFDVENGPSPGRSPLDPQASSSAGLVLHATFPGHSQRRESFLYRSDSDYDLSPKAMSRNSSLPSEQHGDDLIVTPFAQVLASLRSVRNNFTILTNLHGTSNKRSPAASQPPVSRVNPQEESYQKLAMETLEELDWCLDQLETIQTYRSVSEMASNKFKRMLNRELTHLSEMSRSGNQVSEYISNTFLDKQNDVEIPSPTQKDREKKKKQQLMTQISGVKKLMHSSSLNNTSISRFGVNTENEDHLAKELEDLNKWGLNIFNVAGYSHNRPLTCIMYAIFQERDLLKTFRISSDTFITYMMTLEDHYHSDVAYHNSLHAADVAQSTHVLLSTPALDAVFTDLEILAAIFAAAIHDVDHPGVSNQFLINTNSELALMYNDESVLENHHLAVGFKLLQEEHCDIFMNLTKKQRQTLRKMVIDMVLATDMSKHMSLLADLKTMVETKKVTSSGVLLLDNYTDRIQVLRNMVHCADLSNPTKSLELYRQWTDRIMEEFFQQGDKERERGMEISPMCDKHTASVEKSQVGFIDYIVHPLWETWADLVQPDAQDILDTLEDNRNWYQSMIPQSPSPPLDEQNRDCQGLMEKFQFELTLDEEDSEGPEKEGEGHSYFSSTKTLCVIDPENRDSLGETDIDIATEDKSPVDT
T2 sequence (O00408 whole entry): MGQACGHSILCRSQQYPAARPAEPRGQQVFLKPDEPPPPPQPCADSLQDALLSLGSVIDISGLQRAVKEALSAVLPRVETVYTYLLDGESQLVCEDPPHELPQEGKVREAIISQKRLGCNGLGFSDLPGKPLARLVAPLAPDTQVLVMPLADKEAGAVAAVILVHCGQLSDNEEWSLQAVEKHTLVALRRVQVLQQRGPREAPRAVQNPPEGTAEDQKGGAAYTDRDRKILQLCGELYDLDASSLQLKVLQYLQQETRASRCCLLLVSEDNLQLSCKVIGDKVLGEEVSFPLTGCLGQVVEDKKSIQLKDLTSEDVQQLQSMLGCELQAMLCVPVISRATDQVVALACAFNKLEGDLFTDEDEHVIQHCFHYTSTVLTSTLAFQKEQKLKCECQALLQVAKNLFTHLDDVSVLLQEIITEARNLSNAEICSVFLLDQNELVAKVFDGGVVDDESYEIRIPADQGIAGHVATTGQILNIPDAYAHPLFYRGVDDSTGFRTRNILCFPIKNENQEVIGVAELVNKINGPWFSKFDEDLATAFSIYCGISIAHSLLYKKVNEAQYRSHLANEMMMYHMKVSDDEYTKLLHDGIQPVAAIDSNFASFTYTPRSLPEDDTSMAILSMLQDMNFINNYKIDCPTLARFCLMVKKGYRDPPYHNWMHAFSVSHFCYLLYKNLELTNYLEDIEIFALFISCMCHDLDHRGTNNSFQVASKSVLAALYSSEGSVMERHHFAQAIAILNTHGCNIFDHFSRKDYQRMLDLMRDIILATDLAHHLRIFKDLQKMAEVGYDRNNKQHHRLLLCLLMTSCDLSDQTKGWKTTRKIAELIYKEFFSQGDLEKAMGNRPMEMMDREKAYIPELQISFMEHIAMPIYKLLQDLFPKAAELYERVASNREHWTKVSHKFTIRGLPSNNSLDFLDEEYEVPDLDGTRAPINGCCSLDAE
Chain of hrPDE10A (Q9Y233 whole entry): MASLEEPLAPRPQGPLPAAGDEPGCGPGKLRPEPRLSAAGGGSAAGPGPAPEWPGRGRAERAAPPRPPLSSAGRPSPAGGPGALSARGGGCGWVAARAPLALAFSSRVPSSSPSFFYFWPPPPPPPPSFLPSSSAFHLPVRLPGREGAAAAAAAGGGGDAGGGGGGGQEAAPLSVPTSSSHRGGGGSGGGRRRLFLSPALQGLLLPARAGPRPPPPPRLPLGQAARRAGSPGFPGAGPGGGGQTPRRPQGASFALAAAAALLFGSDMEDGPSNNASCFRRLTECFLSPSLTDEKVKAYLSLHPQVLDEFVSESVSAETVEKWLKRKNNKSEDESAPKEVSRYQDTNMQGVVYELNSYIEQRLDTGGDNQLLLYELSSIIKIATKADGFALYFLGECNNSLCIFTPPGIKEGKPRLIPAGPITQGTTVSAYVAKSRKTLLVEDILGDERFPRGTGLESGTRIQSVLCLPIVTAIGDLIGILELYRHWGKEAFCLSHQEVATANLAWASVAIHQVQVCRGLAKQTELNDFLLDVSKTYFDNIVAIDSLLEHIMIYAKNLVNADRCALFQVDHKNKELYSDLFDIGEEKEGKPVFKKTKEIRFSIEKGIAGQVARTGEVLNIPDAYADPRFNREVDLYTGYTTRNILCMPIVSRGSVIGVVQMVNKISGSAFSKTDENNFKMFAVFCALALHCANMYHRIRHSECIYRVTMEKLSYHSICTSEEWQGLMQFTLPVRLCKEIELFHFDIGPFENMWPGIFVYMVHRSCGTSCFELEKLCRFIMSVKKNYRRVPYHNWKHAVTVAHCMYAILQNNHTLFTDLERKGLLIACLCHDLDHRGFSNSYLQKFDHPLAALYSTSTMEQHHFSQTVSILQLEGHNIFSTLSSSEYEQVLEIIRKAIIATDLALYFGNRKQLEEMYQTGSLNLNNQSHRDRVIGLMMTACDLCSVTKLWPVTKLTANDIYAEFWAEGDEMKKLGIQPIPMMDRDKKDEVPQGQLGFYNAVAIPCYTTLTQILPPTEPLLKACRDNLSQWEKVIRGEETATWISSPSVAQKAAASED
Chain of hrPDE4D (Q08499 whole entry): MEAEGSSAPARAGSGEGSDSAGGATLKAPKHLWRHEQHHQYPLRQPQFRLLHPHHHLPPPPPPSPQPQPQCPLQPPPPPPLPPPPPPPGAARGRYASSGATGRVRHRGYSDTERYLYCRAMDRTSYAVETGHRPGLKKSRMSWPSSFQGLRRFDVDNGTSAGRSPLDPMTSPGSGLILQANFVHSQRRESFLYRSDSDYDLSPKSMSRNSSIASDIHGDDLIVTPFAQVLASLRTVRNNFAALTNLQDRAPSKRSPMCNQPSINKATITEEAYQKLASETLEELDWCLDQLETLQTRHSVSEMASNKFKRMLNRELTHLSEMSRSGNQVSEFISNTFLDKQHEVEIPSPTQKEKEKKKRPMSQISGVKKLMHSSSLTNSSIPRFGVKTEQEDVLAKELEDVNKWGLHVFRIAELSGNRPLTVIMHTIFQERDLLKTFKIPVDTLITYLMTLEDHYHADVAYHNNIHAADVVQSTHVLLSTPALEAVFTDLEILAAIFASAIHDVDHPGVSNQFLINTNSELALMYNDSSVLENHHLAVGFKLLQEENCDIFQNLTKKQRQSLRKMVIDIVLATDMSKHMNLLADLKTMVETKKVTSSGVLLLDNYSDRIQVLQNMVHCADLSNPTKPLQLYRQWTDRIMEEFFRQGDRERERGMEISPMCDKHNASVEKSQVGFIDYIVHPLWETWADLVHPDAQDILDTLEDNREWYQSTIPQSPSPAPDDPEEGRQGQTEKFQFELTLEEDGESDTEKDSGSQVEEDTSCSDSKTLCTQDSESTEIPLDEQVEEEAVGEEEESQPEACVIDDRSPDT

Compound	pIC50 (hrPDE4D)	pIC50 (hrPDE4B; hrPDE4B, cAMP substrate, read-out: IC50 PDE4B, Estimate (CV%))	hrPDE4B inhibitory activity, times weaker than rolipram (hrPDE4B)	pIC50 (hrPDE5A)	pIC50 (hrPDE10A)	pIC50 (hrPDE2A)	chondritis / articular cartilage, histological score (result in words) [1]	subchondral osteoarthritis, histological score (result in words) [1]	synovitis / synovial inflammation, histological score (result in words) [1]	PDE4B inhibitory potency of GRMS-55 relative to (±)-LSF (hrPDE4B; GRMS-55 more potent than (±)-LSF in vitro)
CC(O)CCCCn1c(=O)c2c(ncn2C)n(C)c1=O (racemic) [(±)-LSF, lisofylline]	< 3.70	4.29	45 times	< 4.00	< 4.00	4.04	attenuated	failed to significantly diminish	significant alleviation	
Cn1c(=O)c2c(nc(NCCc3ccccc3)n2CCCC(=O)NN=Cc2ccccc2O)n(C)c1=O [GRMS-55, 4-(1,3-Dimethyl-2,6-dioxo-8-(phenethylamino)-2,3,6,7-tetrahydro-1H-purin-7-yl)-N′-(2-hydroxybenzylidene)butanehydrazide]	< 3.70		24 times	< 4.00	4.63	< 4.00	attenuated	attenuated	significant alleviation	~ 2 times and ~ 2.0 times
COc1ccc(C2CNC(=O)C2)cc1OC1CCCC1 (stereo not drawn) [Rolipram, rolipram]							significant amelioration	significant amelioration	significant amelioration	

From paper PMC6940354, “Comparative Assessment of the New PDE7 Inhibitor – GRMS-55 and Lisofylline in Animal Models of Immune-Related Disorders: A PK/PD Modeling Approach” (Pharmaceutical Research, 2020)
